Reference: ChEMBL document CHEMBL4402592, “Targeting Endoplasmic Reticulum α-Glucosidase I with a Single-Dose Iminosugar Treatment Protects against Lethal Influenza and Dengue Virus Infections” (J Med Chem, 2020)
The source made the active and inactive calls. No cut-off for these calls is given here.

Columns and labels:
[1] = system: Influenza A virus; assay: Antiviral activity against Influenza A virus (A/Texas/36/1991(H1N1)) infected in BALB/c mouse assessed as increase in animal survival rate at >250 mg/kg, po administered via gavage as single dose at 8 hrs post-infection; format: functional, organism-based
[2] = system: dengue virus type 2; assay: Antiviral activity against Dengue virus 2 S221 infected in DENV antibody dependent enhancement AG129 mouse model assessed as log10 reduction in viremia by measuring foci of BHK21 cells containing DENV E at 750 mg/kg, po administered via gavage as single dose at 36 hrs post infection measured after titration of compound treated infected animal serum with BHK21 cells by TrueBlue staining based focus forming assay; format: functional
[3] = system: dengue virus type 2; assay: (§1) Antiviral activity against Dengue virus 2 S221 infected in DENV antibody dependent enhancement AG129 mouse model assessed as reduction in TNF-lapha level at 750 mg/kg, po administered via gavage as two doses at 36 hrs and 52 hrs post infection measured at 52 hrs post-infection by electrochemiluminescence based method; format: functional, organism-based
[4] = system: dengue virus type 2; assay: as §1, with “in IFN-gamma” for “in TNF-lapha”, “at 60” for “at 52”; format: functional, organism-based
[5] = system: dengue virus type 2; assay: Antiviral activity against Dengue virus 2 S221 infected in DENV antibody dependent enhancement AG129 mouse model assessed as reduction in viremia at 750 mg/kg, po administered via gavage as single dose at 36 hrs post infection measured within 8 hrs by qRT-PCR analysis; format: functional
[6] = system: dengue virus type 2; assay: as §1, with “TNF-alpha” for “TNF-lapha”, “single dose” for “two doses”, “36” for “36 hrs and 52”, “72” for “52”; format: functional, organism-based
[7] = system: Mus musculus; assay: In vivo inhibition of ERGlu2 in BALB/c mouse assessed as increase in mono-glucosylated FOS level in spleen at 20 mg/kg, po administered via gavage starting at 8 hrs post-infection and continuing tid for 5 days and measured at 8 hrs post-final dose by NP-HPLC analysis; format: functional, organism-based
[8] = system: Influenza A virus; assay: Antiviral activity against Influenza A virus (A/Texas/36/1991(H1N1)) infected in BALB/c mouse assessed as animal survival at 500 mg/kg, po administered via gavage as three doses at 8, 32 and 56 hrs post infection (reference value: 0%); format: functional
[9] = system: Influenza A virus; assay: Antiviral activity against Influenza A virus (A/Texas/36/1991(H1N1)) infected in BALB/c mouse assessed as median death time at 750 mg/kg, po administered via gavage as single dose at 8 hrs post infection; format: functional
[10] = system: dengue virus type 2; assay: Antiviral activity against Dengue virus 2 S221 infected in DENV antibody dependent enhancement AG129 mouse model assessed as animal survival at 375 mg/kg, po administered via gavage as two doses at 24 and 40 hrs post infection (reference value: 4%); format: functional
[11] = system: dengue virus type 2; assay: as §1, with “in IL-10” for “in TNF-lapha”, “at 72” for “at 52”; format: functional, organism-based
[12] = system: Influenza A virus; assay: Antiviral activity against Influenza A virus (A/Texas/36/1991(H1N1)) infected in BALB/c mouse assessed as animal survival at 500 mg/kg, po administered via gavage as single dose at 8 hrs post infection (reference value: 0%); format: functional
[13] = system: Influenza A virus; assay: Antiviral activity against Influenza A virus (A/Texas/36/1991(H1N1)) infected in BALB/c mouse assessed as median death time at 250 mg/kg, po administered via gavage as two doses at 8 hrs and 32 hrs post infection (reference value: 9 days); format: functional
[14] = system: dengue virus type 2; assay: Antiviral activity against Dengue virus 2 S221 infected in DENV antibody dependent enhancement AG129 mouse model assessed as reduction in viremia at 750 mg/kg, po administered via gavage as two doses at 36 hrs and 52 hrs post infection by qRT-PCR analysis; format: functional, organism-based
[15] = system: Mus musculus; assay: In vivo inhibition of ERGlu1 in BALB/c mouse assessed as increase in tri-glucosylated FOS level in serum at 750 mg/kg, po administered via gavage as single dose and measured after 16 hrs by NP-HPLC analysis; format: functional, organism-based
[16] = system: Influenza A virus; assay: Antiviral activity against Influenza A virus (A/Texas/36/1991(H1N1)) infected in BALB/c mouse assessed as median death time at 750 mg/kg, po administered via gavage as two doses at 8 hrs and 32 hrs post infection (reference value: 9 days); format: functional
[17] = system: Cynomolgus monkey; assay: In vivo inhibition of ERGlu1 in cynomolgus monkey assessed as increase in tri-glucosylated FOS at level in serum 128 to 258 mg/kg, po administered via gavage as single dose measured after 8 to 72 hrs by NP-HPLC analysis; format: functional, organism-based; conditions: Macaca fascicularis
[18] = system: Influenza A virus; assay: Antiviral activity against Influenza A virus (A/Texas/36/1991(H1N1)) infected in BALB/c mouse assessed as median death time at 500 mg/kg, po administered via gavage as single dose at 16 hrs post infection (reference value: 8.5 days); format: functional
[19] = system: Influenza A virus; assay: Antiviral activity against Influenza A virus (A/Texas/36/1991(H1N1)) infected in BALB/c mouse assessed as median death time at 500 mg/kg, po administered via gavage as single dose at 24 hrs post infection (reference value: 8.5 days); format: functional
[20] = system: dengue virus type 2; assay: as §1, with “in IL-10” for “in TNF-lapha”, “at 60” for “at 52”; format: functional, organism-based
[21] = system: Mus musculus; assay: In vivo inhibition of ERGlu2 in BALB/c mouse assessed as increase in mono-glucosylated FOS level in spleen at 100 mg/kg, po administered via gavage starting at 8 hrs post-infection and continuing tid for 5 days and measured at 8 hrs post-final dose by NP-HPLC analysis; format: functional, organism-based
[22] = system: Mus musculus; assay: In vivo inhibition of ERGlu2 in BALB/c mouse assessed as increase in di-glucosylated FOS level in serum at 100 mg/kg, po administered via gavage starting at 8 hrs post-infection and continuing tid for 5 days and measured at 8 hrs post-final dose by NP-HPLC analysis; format: functional, organism-based
[23] = system: dengue virus type 2; assay: as §1, with “at 60” for “at 52”; format: functional, organism-based
[24] = system: dengue virus type 2; assay: as §1, with “IL-12/IL-23p40” for “TNF-lapha”, “single dose” for “two doses”, “36” for “36 hrs and 52”, “72” for “52”; format: functional, organism-based
[25] = system: dengue virus type 2; assay: as §1, with “KC-GRO” for “TNF-lapha”, “single dose” for “two doses”, “36” for “36 hrs and 52”, “72” for “52”; format: functional, organism-based
[26] = system: dengue virus type 2; assay: as §1, with “IFN-gamma” for “TNF-lapha”, “single dose” for “two doses”, “36” for “36 hrs and 52”, “72” for “52”; format: functional, organism-based
[27] = system: dengue virus type 2; assay: as §1, with “TNF-alpha” for “TNF-lapha”, “single dose” for “two doses”, “36” for “36 hrs and 52”, “60” for “52”; format: functional, organism-based
[28] = system: Influenza A virus; assay: Antiviral activity against Influenza A virus (A/Texas/36/1991(H1N1)) infected in BALB/c mouse assessed as median death time at 750 mg/kg, po administered via gavage as single dose at 24 hrs post infection (reference value: 8.5 days); format: functional

Question: COCCCCCCCCCN1C[C@H](O)[C@@H](O)[C@H](O)[C@H]1CO.Cl was tested. Which Activity [1] did it give?
Answer: Active

Question: And the “log(activity)” value [2]?
Answer: >1

Question: And the Activity [3]?
Answer: Active

Question: What about the Activity [4] of the same molecule?
Answer: Active

Question: And the “log(activity)” value [5]?
Answer: >1

Question: What about the Activity [6] of the same molecule?
Answer: Active

Question: What about the inhibition [7] of the same molecule?
Answer: Active

Question: What about the survival at 500 mg/kg [8] of the same molecule?
Answer: 100%

Question: And the Time [9]?
Answer: >14 days

Question: What about the survival at 375 mg/kg [10] of the same molecule?
Answer: 100%

Question: What about the Activity [11] of the same molecule?
Answer: Active

Question: And the survival at 500 mg/kg [12]?
Answer: 50%

Question: What about the Time [13] of the same molecule?
Answer: >14 days

Question: And the Activity [14]?
Answer: Active

Question: What about the inhibition [15] of the same molecule?
Answer: Active

Question: And the Time [16]?
Answer: >14 days

Question: And the inhibition [17]?
Answer: Active

Question: And the Time [18]?
Answer: 12 days

Question: What about the Time [19] of the same molecule?
Answer: 11 days

Question: What about the Activity [20] of the same molecule?
Answer: Active

Question: And the inhibition [21]?
Answer: Active

Question: What about the inhibition [22] of the same molecule?
Answer: Active

Question: And the Activity [23]?
Answer: Active

Question: And the Activity [24]?
Answer: Active

Question: And the Activity [25]?
Answer: Active

Question: And the Activity [26]?
Answer: Active

Question: What about the Activity [27] of the same molecule?
Answer: Active

Question: And the Time [28]?
Answer: 10 days
